2 substances from patent US20030118985A1, “Mouse monoclonal antibody (5-21-3) to human immunodeficiency virus gp41 protein” (priority 1997, published 2003) can be followed below.

“Also recorded” adds a separate entry of the source. Bounds are passed on as bounds.

In test [1] the test system is monoclonal antibody 5-21-3. Nature of the test: Immunoprecipitation of [125I] synthetic peptides by 5-21-3. The class given is binding, mouse. The conditions noted are these: for SPECIFIC PRECIPITATION (CPM) by 5-21-3 / x-fold increase of specific over non-specific precipitation, 5-21-3: 5-21-3 10 μg/0.2 ml. The protocol:
(§1) Synthetic peptides were radiolabeled with ^125I (Amersham) by the chloramine T method (N. M. Hunter, “Radioimmunoassay” in D. M. Weir, Ed., Handbook of Experimental Immunology, [Blackwell Scientific Publications, 1973]). Generally, 2-6 ul of 100 mCi/ml ^125I were added to 10-50 ug of peptide in PBS, pH 7.4. Approximately 10 ug of freshly prepared (1 mg/ml in PBS) chloramine T were added to the mixture maintained at 4° C. After 5 min., [^125I]peptide was separated from free ^125I by passage of the reaction mixture through a 3 ml (bed volume) column of Biogel P-6 or P-2, as required. Fractions (200 ul each) containing [^125I]peptide were pooled and diluted into PBS containing 20% fetal calf serum. Rough estimations of ^125I cpm bound to peptide were made by acid precipitation. An aliquot of labeled peptide was diluted into 1 ml of ice cold 50% trichloroacetic acid (TCA) overlaying a 0.45 um filter (made of mixed cellulose esters) set on a scintered glass filter connected to a vacuum apparatus. Precipitated protein was fixed onto the filter by application of vacuum, and filters were washed with ice-cold 50% TCA. Background cpm adhering non-specifically to the filter were estimated by repeating the procedure using a non-precipitating buffer. Amounts of peptide, ^125I, chloramine T, and composition of column eluting buffer were subject to change depending on conditions required to maintain solubility of each peptide.
(§2) Synthetic peptides radiolabeled with ^125I were diluted into PBS (pH 7.4) containing 0.1% Triton X-100 (or other detergents where indicated) and 1.0% BSA, to yield approximately 2.5-5×10^5 acid-precipitable cpm per 0.1 ml. Purified monoclonal IgG 5-21-3 and 10-15-63 were employed in the assay. Monoclonal antibodies were diluted into PBS containing 0.1% Triton X-100 (or other detergents where indicated), 1.0% BSA, and 2% normal mouse serum as a carrier immunoglobulin. Immune rabbit serum (anti-P58-130) was diluted appropriately into the same buffer except that normal rabbit serum (2%) was substituted for normal mouse serum as the carrier immunoglobulin. A reaction mixture comprising 0.1 ml [^125I] peptide (5×10^5 cpm/0.1 ml) and 0.1 ml diluted antibody was incubated 1 hr at 40° C., followed by addition of 0.1 ml of a precipitating antibody, either goat anti-mouse IgG, or goat anti-rabbit IgG, corresponding to the primary antibody. The reaction mixture was incubated 1 hr at 40° C. and then overnight at 4° C. […] Precipitation assays employing Protein A-Sepharose as the precipitating reagent were performed in a similar manner, except that normal sera were omitted from the reaction mixtures.

The subject of test [2] is monoclonal antibody 10-15-63. Nature of the test: Immuno-dot blot of synthetic peptides with 10-15-63. Type of test: binding, mouse. Particulars: 25 ug/ml 10-15-63. The text has this:
(§3) The western Blot procedure described in Example 1 was employed for development of immuno-dot blots using synthetic peptides, except that synthetic peptides were fixed to nitrocellulose by direct application using Drummond lambda pipettes, and air dried prior to blocking with 20% fetal calf serum in PBS (pH 7.4).

The test system of test [3] is binding of antibody 5-21-3 to rp41. Nature of the test: Binding inhibition assay: peptides inhibit binding of 5-21-3 to rp41. On the set-up: species or system HIV I. The protocol: Additional evidence for the conformationl nature of the 5-21-3 epitope was obtained using binding inhibition studies, in which synthetic peptides were ranked for their ability to inhibit binding of 5-21-3 to rp41. First, the Fab dimer of an anti-gp41 monoclonal antibody was prepared by conventional methods (Goding et al., supra). Then 100 ul of a 1 mg/ml solution of the Fab dimer in bicarbonate buffer (pH 9.6) was coated onto Immulon II microtiter plates for 1 hr at 37° C. After washing with PBS containing 0.05% Tween 20, the plates were overcoated with 200 ul of 1.0% ovalbumin in bicarbonate buffer (pH 9.6) for 1 hr at 30° C. After washing, 100 ul of rp41 enriched E. coli lysate (as described in Example 3), diluted appropriately in PBS containing 0.05% Tween 20, were allowed to bind to the Fab dimer for 2 hr at 30° C. The plates were washed and stored at 4° C.
Intact monoclonal antibody 5-21-3 IgG (purified from tissue culture fluid supporting growth of the cloned cell line 5-21-3) was titrated against the bound rp41 on the plate, and an antibody concentration was selected which yielded an A492 value of 2.0-3.0. Usually, 0.4 pmol (0.06 ug) of 5-21-3 IgG per microtiter well was employed in these assays. Stock solutions of 5-21-3 IgG were prepared in PBS containing 0.1% Triton X-100 and 0.1% SDS. Dilutions of synthetic peptides were made in the same buffer (SDS was included in these experiments to keep peptides soluble at high concentrations).
The binding inhibition assay was performed by combining 0.15 ml of 1.2 ug/ml 5-21-3 antibody stock solution with 0.15 ml of peptide at a selected peptide concentration, and incubating the reaction mixture 1 hr at room temp. Then 0.1 ml aliquots of each reaction mixture were added to each of two wells in the microtiter tray. After a 1 hr incubation at room temp., the plates were washed, and HRPO conjugated Goat anti-mouse IgG Fc was added for 1 hr at room temp. The plates were washed, and addition of OPD for color development identified the relative amounts of 5-21-3 bound to rp41 in the microtiter wells. The reaction was stopped by addition of 100 ul of 1N H2SO4, and the plates were read on a Dynatech II microtiter plate reader.

The test system of test [4] is mouse (M) anti-rp41 serum. Nature of the test: Immuno-dot blot of synthetic peptides with mouse anti-rp41 serum. The class given is binding. Particulars: 2% serum.
Text: as §3

For test [5], the system named is Rabbit (R) anti-P58-130 serum. Nature of the test: Immuno-dot blot of synthetic peptides with rabbit anti-P58-130 serum. The class given is binding. Particulars: 2% serum.
Text: as §3

In test [6] the test system is Rabbit (R) anti-P58-130 serum. Nature of the test: Immunoprecipitation of [125I] synthetic peptides by rabbit anti-P58-130 serum. The class given is binding. The conditions noted are these: for SPECIFIC PRECIPITATION (CPM) by RαP58-130 / x-fold increase of specific over non-specific precipitation, RαP58-130: rabbit anti-P58-130 serum 20 ul/0.2 ml. The method, then: as §1, §2

Test [7] has as its system monoclonal antibody 5-21-3. Nature of the test: Immuno-dot blot of synthetic peptides with 5-21-3. The class given is binding, mouse. The conditions noted are these: 25 ug/ml 5-21-3; peptide spotted on nitrocellulose.
Text: as §3

The test system of test [8] is monoclonal antibody 10-15-63. Nature of the test: Immunoprecipitation of [125I] synthetic peptides by 10-15-63. Type of test: binding, mouse. The conditions noted are these: for SPECIFIC PRECIPITATION (CPM) by 10-15-63 / x-fold increase of specific over non-specific precipitation, 10-15-63: 10-15-63 10 μg/0.2 ml. The protocol:
as §1, §2

[9] abbreviates: detergent-rich buffer, Protein A-Sepharose.
Where [10] appears, read: PBS, 0.1% Triton X-100, 1.0% BSA, carrier serum, second antibody precipitation.
Setting [11] is: second antibody precipitation, vs normal mouse IgG.

Take “H-TVWGIKELQARILAVERYLKDQQLLGIWGCSGKLICTTAVPWNASWSNKSLEQIWNNMTWMEWDREINNYTSL-OH [P58-130]”: the “binding of [125I]peptide by 5-21-3 (immunoprecipitation), in words” value in test [1] is “unable to bind”. Moreover, the “SPECIFIC PRECIPITATION (CPM) by 5-21-3” value in test [1] (detergent-rich buffer (0.1% Triton X-100, 1.0% sodium deoxycholate, 0.1% SDS), Protein A-Sepharose) was 0 CPM. Besides, the “x-fold increase of specific over non-specific precipitation, 5-21-3” value in test [1] (setting [9]) was “(<1) x-fold”. Moreover, the “immuno-dot blot reactivity with 10-15-63” value in test [2] is “Little or no reactivity”. In addition, the “inhibition of 5-21-3 binding to rp41, in words” value in test [3] is recorded as “no detectable inhibition”. The “immuno-dot blot reactivity with mouse anti-rp41 serum” value in test [4] was “Strong reactivities”. Moreover, the “immuno-dot blot reactivity with rabbit anti-P58-130 serum” value in test [5] is reported as “Strong reactivities”. Further, in test [6], the “precipitation of [125I]peptide by rabbit anti-P58-130, in words” value is reported as “strong precipitator”. In addition, in test [6] (setting [9]), the “SPECIFIC PRECIPITATION (CPM) by RαP58-130” value is 286,722 CPM and the “x-fold increase of specific over non-specific precipitation, RαP58-130” value is “(32) x-fold”. Moreover, the “immuno-dot blot reactivity with 5-21-3” value in test [7] is on record as “did not react”. In test [8] (setting [9]), the “SPECIFIC PRECIPITATION (CPM) by 10-15-63” value amounted to 0 CPM and the “x-fold increase of specific over non-specific precipitation, 10-15-63” value is given as “(<1) x-fold”.

For “ARILAVERYLKDQQLLGIWGCSGKLICTTAVPWNASWSNKSLEQIWNNMTWMEWDREINNYSLIHSLIEESQNQQEKNELLELNK [P67-154]”, in test [1], the “binding of [125I]peptide by 5-21-3 (immunoprecipitation), in words” value is “readily bound”. Besides, the “SPECIFIC PRECIPITATION (CPM)” value in test [1] (5-21-3 1.0 μg/ml final) is given as 165,781 CPM; in test [1] (5-21-3 10.0 μg/ml final), 441,887 CPM; in test [1] (5-21-3 100.0 μg/ml final), 659,045 CPM; in test [8] (10-15-63 1.0 μg/ml final), 0 CPM; in test [8] (10-15-63 10.0 μg/ml final), 0 CPM; in test [8] (10-15-63 100.0 μg/ml final) it was 0 CPM. Further, the “x-fold increase of specific over non-specific precipitation” value in test [1] (5-21-3 1.0 μg/ml final) was “(3.6) x-fold”; in test [1] (5-21-3 10.0 μg/ml final), “(8.5 x-fold”; in test [1] (5-21-3 100.0 μg/ml final) it was “(8.0) x-fold”; in test [8] (10-15-63 1.0 μg/ml final), “(0) x-fold”; in test [8] (10-15-63 10.0 μg/ml final), “(0) x-fold”; in test [8] (10-15-63 100.0 μg/ml final) it was “(0) x-fold”. Also, the “SPECIFIC PRECIPITATION (CPM) by 5-21-3” value in test [1] (setting [10]) is listed as 479,207 CPM. The “x-fold increase of specific over non-specific precipitation, 5-21-3” value in test [1] (setting [11]) is on record as “(16) x-fold”. Further, in test [1] (immunoprecipitation, Table 5), the “5-21-3 concentration required to demonstrate binding of the peptide” value is not above 1 µg/mL. In test [2], the “immuno-dot blot reactivity with 10-15-63” value is “Little or no reactivity”. The “inhibition of 5-21-3 binding to rp41, in words” value in test [3] is on record as “potent inhibitor; also recorded: most potent inhibitor”. In addition, the “Molar Ratio at 50% inhibition of 5-21-3 binding” value in test [3] (mean of two experiments, 0.4 pmol 5-21-3 IgG per well) is recorded as 72.7 pmoles peptide/pmoles 5-21-3. The “immuno-dot blot reactivity with mouse anti-rp41 serum” value in test [4] is “Strong reactivities”. The “immuno-dot blot reactivity with rabbit anti-P58-130 serum” value in test [5] is “Strong reactivities”. Further, the “precipitation of [125I]peptide by rabbit anti-P58-130, in words” value in test [6] was “strong precipitator”. The “SPECIFIC PRECIPITATION (CPM) by RαP58-130” value in test [6] (second antibody precipitation) is on record as 479,343 CPM. The “x-fold increase of specific over non-specific precipitation, RαP58-130” value in test [6] (second antibody precipitation, vs normal rabbit serum) is reported as “(4.4) x-fold”. The “immuno-dot blot reactivity with 5-21-3” value in test [7] was “very strong reaction”. In test [8] (setting [10]), the “SPECIFIC PRECIPITATION (CPM) by 10-15-63” value came out at 9713 CPM. For the same substance, in test [8] (setting [11]), the “x-fold increase of specific over non-specific precipitation, 10-15-63” value is on record as “(1.3) x-fold”.
